The record followed here is BindingDB's records for doi:10.1016/j.bmcl.2020.127669 (Janssen Research & Development, 2021).

Molecules are shown by their SMILES.

This experiment addresses 5-hydroxytryptamine receptor 2B (Homo sapiens, UniProt P41595). Briefly: Displacement of […] from human 5-HT2B receptor by competitive radioligand binding assay. (Loss of bound radioactivity is the signal in a displacement assay; it reports binding, not function.)

Sequence of 5-hydroxytryptamine receptor 2B (P41595 whole entry): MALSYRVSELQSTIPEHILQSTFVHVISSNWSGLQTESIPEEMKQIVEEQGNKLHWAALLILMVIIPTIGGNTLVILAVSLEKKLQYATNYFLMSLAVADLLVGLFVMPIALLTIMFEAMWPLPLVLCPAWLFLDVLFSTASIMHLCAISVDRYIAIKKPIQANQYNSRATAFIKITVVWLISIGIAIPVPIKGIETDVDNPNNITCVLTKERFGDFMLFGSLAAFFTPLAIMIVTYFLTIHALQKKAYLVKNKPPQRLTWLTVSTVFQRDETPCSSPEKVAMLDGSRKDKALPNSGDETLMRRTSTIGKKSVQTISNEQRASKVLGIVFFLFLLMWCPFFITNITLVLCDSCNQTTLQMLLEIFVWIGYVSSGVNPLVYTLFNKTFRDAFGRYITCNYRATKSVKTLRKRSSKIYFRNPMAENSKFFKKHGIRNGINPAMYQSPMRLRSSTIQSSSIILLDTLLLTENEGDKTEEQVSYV

Take `CC(C)n1nc2c(c1-c1ccc(F)cc1)CCNCC2`: the affinity, expressed as Ki, was 25 nM.
